The values that follow come from ChEMBL document CHEMBL1201862, “PubChem BioAssay data set” (2004).

One experiment concerns the target Genome polyprotein (dengue virus type 2, UniProt P29990). Kind of experiment: flavivirus cap methylation enzyme inhibition – biochemical, confirmation dose response, primary screen (AID 588689). In kind it is functional.
Experiment [1] has as its system BJ. Kind of experiment: BJ-TERT fibroblast viability loss – cell-based, RAS-independent, luminescence, dose response (AID 1933). The format is functional. Particulars: Homo sapiens.
The test system of experiment [2] is BJ. Kind of experiment: cells. In kind it is functional, cell-based. Particulars: Homo sapiens.
In experiment [3] the test system is BJ. Kind of experiment: BJ-TERT-LT-ST fibroblast viability loss – cell-based, RAS-independent, luminescence, dose response (AID 1935).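 Note: BJ fibroblasts immortalized with TERT plus LT and ST oncogenes.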 To be noted: Homo sapiens. In kind it is functional.
The nature of experiment [4]: DRD fibroblast viability loss – cell-based, non-viral oncogenic, luminescence, dose response (AID 1934). In kind it is functional. To be noted: Homo sapiens.
The subject of experiment [5] is Vero. Kind of experiment: cells. Particulars: Chlorocebus sabaeus. In kind it is functional, cell-based.
Experiment [6] relates to Vero. Kind of experiment: cells. The format is functional. Particulars: Chlorocebus sabaeus.
Experiment [7] concerns the target Beta-2 adrenergic receptor (Homo sapiens, UniProt P07550). Nature of the experiment: ADRB2 activation measured by internalization – cell-based, FAP fluorogen, flow cytometry, cherry pick 1, dose response (AID 588763). The format is functional. (In general: A flow cytometer gives signals particle by particle.)
The nature of experiment [8]: NIH-3T3 fibroblast cytotoxicity, dose response, cytotoxicity control, cell-based, fluorescence, Alamar Blue, secondary assay (AID 2327).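 Note: NIH-3T3 mouse fibroblasts cultured with fluconazole at 8 µg/mL.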 In kind it is functional.
A short description of experiment [9]: fluconazole-exposed Candida albicans growth modulators – fluorescence, retest, confirmation (AID 2467). The format is functional, cell-based.
The target in experiment [10] is T1, High affinity choline transporter 1 (Homo sapiens, UniProt Q9GZV3).
T1 sequence (Q9GZV3 whole entry): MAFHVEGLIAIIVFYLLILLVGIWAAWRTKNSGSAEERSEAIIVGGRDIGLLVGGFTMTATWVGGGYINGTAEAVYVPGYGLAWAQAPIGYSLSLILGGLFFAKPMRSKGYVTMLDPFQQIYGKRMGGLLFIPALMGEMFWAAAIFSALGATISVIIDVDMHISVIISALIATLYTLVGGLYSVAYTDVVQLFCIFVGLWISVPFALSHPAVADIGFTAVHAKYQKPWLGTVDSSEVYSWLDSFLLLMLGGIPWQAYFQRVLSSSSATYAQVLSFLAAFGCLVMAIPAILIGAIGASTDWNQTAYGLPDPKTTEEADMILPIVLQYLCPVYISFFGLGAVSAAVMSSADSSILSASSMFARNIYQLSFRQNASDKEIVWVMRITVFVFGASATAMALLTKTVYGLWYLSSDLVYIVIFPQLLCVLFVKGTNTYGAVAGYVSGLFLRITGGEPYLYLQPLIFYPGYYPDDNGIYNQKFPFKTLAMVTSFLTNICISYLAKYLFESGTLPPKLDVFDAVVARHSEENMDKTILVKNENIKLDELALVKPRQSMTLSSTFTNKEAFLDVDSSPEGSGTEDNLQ
Kind of experiment: human choline transporter blockers, potency – cell-based, 5-point CRC, membrane potential dye, dose response (AID 504840). In kind it is functional.

A further experiment concerns INS1. Nature of the experiment: INS-1E survival protection against cytokine death – cell-based, luminescence, retest, dose response (AID 449756).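 Note: cell death triggered by IL-1 beta plus TNF-alpha plus IFN-gamma mixture; protective hits raise ATP signal compared with cytokine alone wells.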 The format is functional. To be noted: Rattus norvegicus.
The target in another experiment is T2, Coagulation factor XII (Homo sapiens, UniProt P00748).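 Note: activated factor XIIa alpha cleaving a fluorogenic AMC peptide substrate; inhibitor potency from loss of enzyme activity.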
T2 sequence (P00748 whole entry): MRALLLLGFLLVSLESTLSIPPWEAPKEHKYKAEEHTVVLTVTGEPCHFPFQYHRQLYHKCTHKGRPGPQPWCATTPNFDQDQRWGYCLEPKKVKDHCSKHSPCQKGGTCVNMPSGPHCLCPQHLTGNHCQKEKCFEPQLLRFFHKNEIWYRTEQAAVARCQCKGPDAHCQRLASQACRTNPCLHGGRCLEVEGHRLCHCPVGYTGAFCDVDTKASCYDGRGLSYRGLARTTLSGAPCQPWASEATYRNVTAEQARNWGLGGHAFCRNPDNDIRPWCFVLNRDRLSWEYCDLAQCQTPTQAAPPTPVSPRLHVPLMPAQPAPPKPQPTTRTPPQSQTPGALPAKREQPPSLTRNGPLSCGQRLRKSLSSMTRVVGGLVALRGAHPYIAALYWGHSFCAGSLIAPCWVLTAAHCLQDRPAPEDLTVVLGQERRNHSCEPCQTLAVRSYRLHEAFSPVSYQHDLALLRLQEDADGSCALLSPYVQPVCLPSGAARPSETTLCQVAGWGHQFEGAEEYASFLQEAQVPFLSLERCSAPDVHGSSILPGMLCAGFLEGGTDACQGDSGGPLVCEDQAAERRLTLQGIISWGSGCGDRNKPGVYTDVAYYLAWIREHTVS
In kind it is functional.

Another experiment deals with Cytochrome P450 2C19 (Homo sapiens, UniProt P33261). Nature of the experiment: Cytochrome panel assay with activity outcomes. Panel member name: p450-cyp2c19 Compounds with AC50 equal or less than 10 uM are considered active. The format is functional. To be noted: read-out: AC50.
Sequence of Cytochrome P450 2C19 (P33261 whole entry): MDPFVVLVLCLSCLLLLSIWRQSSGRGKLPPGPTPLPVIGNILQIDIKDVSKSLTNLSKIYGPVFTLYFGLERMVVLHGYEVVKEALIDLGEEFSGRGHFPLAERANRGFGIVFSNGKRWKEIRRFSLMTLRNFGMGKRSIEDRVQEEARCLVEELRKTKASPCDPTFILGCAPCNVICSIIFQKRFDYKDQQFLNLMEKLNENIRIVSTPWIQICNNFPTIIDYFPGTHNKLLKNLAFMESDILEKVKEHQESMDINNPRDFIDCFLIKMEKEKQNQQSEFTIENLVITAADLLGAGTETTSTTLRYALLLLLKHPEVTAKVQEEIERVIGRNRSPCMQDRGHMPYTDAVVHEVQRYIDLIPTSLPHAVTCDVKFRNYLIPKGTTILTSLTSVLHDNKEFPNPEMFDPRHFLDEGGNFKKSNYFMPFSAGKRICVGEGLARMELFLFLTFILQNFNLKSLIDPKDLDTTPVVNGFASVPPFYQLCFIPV
In the next experiment the target is T3, Cytochrome P450 1A2 (Homo sapiens, UniProt P05177).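 Note: PubChem cytochrome P450 panel assay, CYP1A2 panel member.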
T3 sequence (P05177 whole entry): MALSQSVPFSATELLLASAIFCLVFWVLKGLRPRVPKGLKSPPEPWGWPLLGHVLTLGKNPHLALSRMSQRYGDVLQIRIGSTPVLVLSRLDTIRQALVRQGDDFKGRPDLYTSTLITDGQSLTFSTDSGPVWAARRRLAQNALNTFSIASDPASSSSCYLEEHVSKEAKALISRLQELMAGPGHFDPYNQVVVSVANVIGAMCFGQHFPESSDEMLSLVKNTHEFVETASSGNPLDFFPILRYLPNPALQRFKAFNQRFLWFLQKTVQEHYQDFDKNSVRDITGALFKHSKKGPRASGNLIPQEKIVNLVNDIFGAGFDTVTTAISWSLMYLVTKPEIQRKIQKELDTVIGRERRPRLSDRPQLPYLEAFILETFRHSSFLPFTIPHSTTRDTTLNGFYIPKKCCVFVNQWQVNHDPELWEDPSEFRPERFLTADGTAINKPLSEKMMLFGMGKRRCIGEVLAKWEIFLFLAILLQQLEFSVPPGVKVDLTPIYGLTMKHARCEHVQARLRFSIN

Experiment [11] in a line: viability of uninfected HEp-2 cells – cell-based, HTS, cytotoxicity control for RSV inhibitor project, dose response (AID 2410). The format is functional. To be noted: human respiratory syncytial virus.
A short description of experiment [12]: luciferase reporter signal suppression in cells – H4 neuroglioma cells, luminescence, dose response (AID 1990). In kind it is functional, cell-based. On the technique in general: In a reporter assay the amount or activity of a reporter protein is the signal.
Experiment [13] can be described thus: Luminescence Cell-Based Dose Response HTS to Identify Inhibitors of 5'UTR Stem-Loop Driven Prion Protein mRNA Translation in H4 Neuroglioblastoma Cells. [Related pubchem assays: 1827 (Project Summary), 1813 (Primary HTS)]. In kind it is functional.
Experiment [14] is described as follows: alpha-synuclein stem-loop luciferase translation blockers – H4 neuroglioma cells, luminescence, confirmation (AID 1988). In kind it is functional, cell-based.
The target of experiment [15] is T4, Calpain-2 catalytic subunit (Sus scrofa, UniProt P43367).
T4 sequence (P43367 whole entry): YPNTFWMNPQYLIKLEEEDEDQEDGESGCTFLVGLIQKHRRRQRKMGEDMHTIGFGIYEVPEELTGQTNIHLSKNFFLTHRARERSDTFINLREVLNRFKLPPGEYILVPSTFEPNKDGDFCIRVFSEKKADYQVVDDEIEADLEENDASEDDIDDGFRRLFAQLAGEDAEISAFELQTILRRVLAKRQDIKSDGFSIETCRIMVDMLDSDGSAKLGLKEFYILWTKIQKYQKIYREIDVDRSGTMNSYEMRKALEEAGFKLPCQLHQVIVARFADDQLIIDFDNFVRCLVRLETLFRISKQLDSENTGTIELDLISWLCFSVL
Nature of the experiment: m-calpain protease blockers, concentration series – biochemical, fluorogenic peptide substrate, dose response (AID 1420). In kind it is functional.

Experiment [16] deals with T5, Carboxy-terminal domain RNA polymerase II polypeptide A small phosphatase 1 (Homo sapiens, UniProt Q9GZU7).
T5 sequence (Q9GZU7 whole entry): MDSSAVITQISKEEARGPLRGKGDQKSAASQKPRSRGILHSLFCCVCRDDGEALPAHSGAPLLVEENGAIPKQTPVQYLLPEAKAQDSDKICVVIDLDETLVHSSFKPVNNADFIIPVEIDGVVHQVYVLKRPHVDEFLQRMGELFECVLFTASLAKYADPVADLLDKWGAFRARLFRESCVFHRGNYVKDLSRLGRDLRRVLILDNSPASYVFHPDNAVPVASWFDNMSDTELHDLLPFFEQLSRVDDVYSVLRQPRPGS
Nature of the experiment: CTDSP1 inhibitors, concentration-response, biochemical, absorbance readout, ultra-high-throughput screen actives (AID 540297). In kind it is functional.

The structures appear in SMILES notation. Activity calls are given as the source filed them.

Sequence of Beta-2 adrenergic receptor (P07550 whole entry): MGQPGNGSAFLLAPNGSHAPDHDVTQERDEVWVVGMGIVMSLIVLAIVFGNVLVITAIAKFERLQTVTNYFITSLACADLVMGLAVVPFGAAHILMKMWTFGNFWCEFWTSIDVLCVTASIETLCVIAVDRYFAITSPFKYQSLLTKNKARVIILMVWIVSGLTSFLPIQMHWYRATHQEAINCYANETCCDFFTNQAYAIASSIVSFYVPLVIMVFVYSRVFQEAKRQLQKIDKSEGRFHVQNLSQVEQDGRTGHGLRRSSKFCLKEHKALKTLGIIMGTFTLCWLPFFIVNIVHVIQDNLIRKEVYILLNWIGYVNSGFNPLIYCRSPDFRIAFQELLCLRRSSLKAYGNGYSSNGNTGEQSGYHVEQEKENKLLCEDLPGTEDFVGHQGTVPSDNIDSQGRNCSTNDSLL
Sequence of Genome polyprotein (P29990 2492-3391 limits assumed): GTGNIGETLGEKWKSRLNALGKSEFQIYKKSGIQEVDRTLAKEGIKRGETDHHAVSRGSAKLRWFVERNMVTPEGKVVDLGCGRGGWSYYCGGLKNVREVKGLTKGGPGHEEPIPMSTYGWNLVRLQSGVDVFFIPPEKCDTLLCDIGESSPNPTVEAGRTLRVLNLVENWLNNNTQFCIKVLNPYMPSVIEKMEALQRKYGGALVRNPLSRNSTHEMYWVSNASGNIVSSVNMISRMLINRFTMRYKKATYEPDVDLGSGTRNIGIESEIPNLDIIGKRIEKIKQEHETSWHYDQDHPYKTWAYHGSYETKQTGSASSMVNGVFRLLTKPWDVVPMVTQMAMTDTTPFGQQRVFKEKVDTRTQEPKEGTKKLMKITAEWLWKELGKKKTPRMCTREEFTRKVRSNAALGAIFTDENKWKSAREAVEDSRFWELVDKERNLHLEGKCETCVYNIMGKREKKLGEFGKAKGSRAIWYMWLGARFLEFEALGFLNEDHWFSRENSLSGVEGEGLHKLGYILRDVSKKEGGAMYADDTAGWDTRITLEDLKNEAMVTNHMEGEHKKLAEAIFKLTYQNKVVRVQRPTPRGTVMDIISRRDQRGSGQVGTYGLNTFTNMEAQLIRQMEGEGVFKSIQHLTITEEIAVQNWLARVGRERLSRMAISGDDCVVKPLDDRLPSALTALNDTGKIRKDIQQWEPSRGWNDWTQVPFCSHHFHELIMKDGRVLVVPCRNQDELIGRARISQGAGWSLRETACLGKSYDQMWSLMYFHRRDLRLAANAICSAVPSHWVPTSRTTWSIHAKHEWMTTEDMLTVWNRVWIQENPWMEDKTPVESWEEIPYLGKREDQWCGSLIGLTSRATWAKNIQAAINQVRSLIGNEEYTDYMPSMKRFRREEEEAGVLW

For the compound `COc1ccccc1N(O)C1CC(=O)N(c2ccc(F)cc2)C1=O` (stereo not given), on Genome polyprotein, the IC50 (as a rule, the concentration that gives 50% inhibition) is 62 µM (active).

Turning to `N#CC1=C(N)OC2=C(CCc3ccccc32)C1c1ccccc1` (stereo not given), the EC50 – broadly, the concentration at which the effect is half-maximal – was 0.645 µM (inconclusive) in the experiment on BJ [1]; 13.5 µM (active) in the experiment with BJ [2]; 0.689 µM (inconclusive) with BJ [3]; 0.61 µM (active) in experiment [4]; 52.5 µM (inactive) in [7]. Further, the IC50 in the experiment on Vero [5] is > 25 µM (active). Further, in the experiment with Vero [6], the CC50 (commonly the concentration giving 50% cytotoxicity) is 0.17 µM (active).

For the compound `CCOC(=O)c1nc(NNC(=O)c2ccc([N+](=O)[O-])cc2)sc1C`, the EC50 is 30.9 µM (active) in [8] and 2.62 µM (active) in experiment [9]. Besides, the IC50 in [10] was 9.91 µM (active). Moreover, the AC50 (in general, the concentration at which the activity in the assay is half-maximal) in the experiment on INS1 is 2.7 µM (active).

With `Cc1cc(OC(=O)c2ccc(Cl)cc2Cl)nc(C)n1`, the IC50 at Coagulation factor XII was > 50 µM (inconclusive). Also, the AC50 on Cytochrome P450 2C19 and at Cytochrome P450 1A2 was 28.2 µM (inconclusive) in each case.

In the case of `O=C(C(c1ccccc1)c1ccccc1)N1CCN(c2ccccn2)CC1`, the EC50 in experiment [7] is 0.0379 µM (active).

Consider `c1ccc(-c2csc3ncnc(NCC4COc5ccccc5O4)c23)cc1` (stereo not given), for which, at Coagulation factor XII, the IC50 is > 50 µM (inactive). Besides, the AC50 in the experiment with INS1 was 1.41 µM (active).

As for `CCOc1ccccc1CNC(=O)c1cc2oc3ccccc3c2n1CC`, the CC50 is 13.8 µM (active) in [11] and > 25 µM (active) with Vero [6]. For the same compound, the figures for the EC50 in experiment [12], in experiment [13] and in experiment [14] were > 120 µM (not active), 16.6 µM (active) and 14.9 µM (active), respectively. Moreover, the results for the IC50 with Vero [5] and in “cells” were > 12.5 µM (active) and 42.3 µM (active), respectively.

With `CCOc1ccc2nc(NC(=O)CSc3nc4cccnc4n3C)sc2c1`, the EC50 in [7] is 2.44 µM (active).

`O=C1CC(c2ccccc2)(c2ccccc2)c2ccccc21`: the EC50 in experiment [7] was 17.1 µM (inactive).

As to `C=CCNC(=S)N/N=C/c1ccc(C)c([N+](=O)[O-])c1`, the IC50 in [15] is 3.49 µM (not active); at Coagulation factor XII it was > 50 µM (inactive).

Turning to `O=C(O)c1ccc(Oc2ccc(S(=O)(=O)c3ccc(C(=O)O)c(C(=O)O)c3)cc2)cc1`, the IC50 in [16] was 6.97 µM (active).
